pIC50: −log10 of the molar value.
Key:
[1] = test system: multi-drug resistant MCF-7 ADR^R breast cancer cells; experiment: TCA-precipitable 2-[3H]methylthymidine incorporation; assay type: cell-based; conditions: thymidine incorporation
Protocol: MCF-7 cells were continuously exposed to increasing concentrations of adriamycin resulting in multidrug-resistance (mdr) as a stable genetic trait (Batist et al., J. Biol. Chem. (1986) 261:[…]). The mdr cells are referred to as ADR^R cells. MCF-7 WT (wild-type) and ADR^R cells were plated at 1000 cells/well (9.6 cm^2) in RPMI 1640 supplemented with 10% fetal bovine serum (day 1). Plant PI (0.5-150 μM) in the form of multilamellar vesicles (Jett and Alving, in Methods in Enzymology 141B (eds. Conn. P.M. and Means A.R.) 459-466, Academic Press, Orlando, FL 1987) or adriamycin (1-2000 nM) was added to the cultures on day 2. At day 8-10, the fluid was removed and clones were fixed, stained and counted. Colonies were scored positive if >40 cells/clone Adriamycin (10-500 nM) or plant PI (20-200 μM) was added at the time of cell plating. At day 8-10, the colony forming units of granulocytes and monocytes (CFV-GM) were counted. The results were the average of triplicate experiments.
In order to further assess cell viability between wild-type (MCF-7 wild-type cell line) (WT) and multi-drug resistant MCF-7 ADR^R (MDR^R) breast cancer cells, tests involving TCA-precipitable 2-[^3 H]methylthymidine incorporation were employed. MCF-7 WT and ADR^R cells were plated (Day 1) at 1500 cells/well in 96-well cluster plates. […] Results were expressed as the geometric mean of triplicate cultures.

[2] = test system: MCF-7 wild-type (WT) breast cancer cells; experiment: as above; assay type: cell-based; conditions: thymidine incorporation
Protocol: In order to further assess cell viability between wild-type (MCF-7 wild-type cell line) (WT) and multi-drug resistant MCF-7 ADR^R (MDR^R) breast cancer cells, tests involving TCA-precipitable 2-[^3 H]methylthymidine incorporation were employed. MCF-7 WT and ADR^R cells were plated (Day 1) at 1500 cells/well in 96-well cluster plates. On Day 2, phospholipid preparations were added to triplicate cultures. On Day 7, 2-[^3 H]methylthymidine was added and the cells harvested as described (Jett et al., Cancer Res. (1985) 45:4810-4815), using 5% TCA as the wash buffer. Results were expressed as the geometric mean of triplicate cultures.

HT-144 [3] = experiment: Liposomal uptake by normal and tumor cells; assay type: cell-based, human; conditions: tumor cells HT-144
Protocol: (§1) Cells were treated with liposomes containing synthetic preparations of PI (left frames) or PC (right frames) containing palmitic acid in the sn-1 position and either [^14 C]linoleic acid in the sn-2 position (FIGS. 5 and 5a) or [^14 C]arachidonic acid in the sn-2 position (FIGS. 6 and 6a) or [^14 C]oleic acid in the sn-2 position (FIGS. 7 and 7a). The liposomes were comprised of the indicated phospholipids (PI or PC) and cholesterol in a molar ratio of 2:1.
(§2) The data in Table 5 was obtained concomitantly with the toxicity studies in FIGS. 5-7a.

MRC-5 = experiment: Liposomal uptake by normal and tumor cells; assay type: cell-based; conditions: normal cells MRC-5
Protocol: (§3) Thymidine uptake is a method of assessing cell viability of cultured cells, and decreased thymidine uptake occurs as a result of cytotoxicity caused by contact with toxic substances. , MRC-5 normal embryonic lung fibroblasts; , W1-38SV/40 transformed embryonic human lung fibroblasts; .quadrature..quadrature., SK-N-MC human glioblastoma cells and , N4TG1 mouse neuroblastoma cells.
as §1, §2

N4TG1 Neuroblastoma = experiment: LD50 to tumor cells of various preparations of PI; assay type: cell-based; conditions: Mus musculus
Excerpt: as §3, with “FIGS. 5 through 7 a show comparisons of the effects of liposomes having varous phospholipids containing defined fatty acids on [^3 H-methyl]-thymidine uptake. Thymidine” for “Thymidine”
(§4) [methyl-^3 H]Thymidine (New England Nuclear) incorporation was carried out using 96-well plates (Costar). Thymidine incorporation was used as an assay for cell viability, since in the previous studies described in the Biochem. Biophys. Res. Commun. (1983) article, other methods of assessing cell viability, including microscopic evaluation in the presence of trypan blue, gave identical results. Fifty μl of cell suspension (4×10^5 cells/ml) were added to duplicate wells. Approximately 18 hours later 25 μl of the PI-containing liposomes were added to give a final concentration of phospholipid of 200 μM (approximately, 14 nmol/2-3×10^4 cells). At various intervals after PI addition [^3 H]thymidine, 1 μCi/well was added and incubated with the cells for 3 hours. Cells were collected on glass fiber filter mats by a mechanical cell harvester (Skatron, Inc.) using a combination of scraping and fluid turbulence (saline). Filters were dried and the material was solubilized by incubation overnight with NCS tissue solubilizer and counted in the presence of Spectrafluor (Amersham).
(§5) Res Commun. article cited above. The LD50 values for some of the cell lines reported in the Biochem. Biophys. Res. Commun. article are compared with LD50 values obtained using Avanti plant PI or synthetic ([14 C]linoleoyl)PI.

SK-N-MC [4] = experiment: LD50 to tumor cells of various preparations of PI; assay type: cell-based; conditions: Homo sapiens
Excerpt: as §3, with “FIGS. 5 through 7 a show comparisons of the effects of liposomes having varous phospholipids containing defined fatty acids on [^3 H-methyl]-thymidine uptake. Thymidine” for “Thymidine”
as §4, §5

WI-38/SV-40 [5] = experiment: LD50 to tumor cells of various preparations of PI; assay type: cell-based; conditions: Homo sapiens
Excerpt: as §3, with “FIGS. 5 through 7 a show comparisons of the effects of liposomes having varous phospholipids containing defined fatty acids on [^3 H-methyl]-thymidine uptake. Thymidine” for “Thymidine”
as §4, §5

[6] = test system: N4TG1 neuroblastoma cells; experiment: Fate of liposomal PI after incubation with N4TG1 neuroblastoma cells; assay type: in vitro ADME, mouse
Excerpt: Lipids were dried and resuspended exactly as described previously in the Biochem. Biophys. Res. Commun. article. In the use of ([^14 C]linoleoyl)PI, ([^14 C]oleoyl)PI, or ([^14 C]arachidonoyl)PI the phospholipids were used in a 2:1 molar combination with cholesterol. Cholesterol was included in the liposomes in order to minimize the net transfer of cholesterol into or out of the cells. ([^3 H]myo-Inositol)PI was used as a tracer (1%) with bovine liver PI as the bulk phospholipid carrier for forming liposomes. [^3 H]Linoleic acid was used as a tracer (4%) in liposomes containing linoleic acid:PI (yeast or animal): cholesterol, 2:1. […]
In order to extract lipids, methanol and chloroform were added to cell homogenates to obtain a single phase of CHCl3 :CH3 OH:H2 O (1:2:1 8, v/v) containing 0.1M HCl, according to Bligh and Dyer in Can. […] The lipid compositions of the cell extracts were determined by thin layer chromatography on silica gel precoated sheets (E. M. Reagents; E. Merck, FRG) using the following solvent systems: (a) chloroform:methanol: acetic acid:water, 25:15:4:2 (v/v) (used for phospholipid separation): (b) 1-propanol:4.3M ammonia containing 10 mM EDTA, 65:35 (v/v) (used for PIP and PIP2 separations); and (c) chloroform:acetone, 1:1 (v/v) (used for DG and fatty acid separations). […]

[7] = Sedimentation of liposomes by low speed / differential centrifugation; assay type: physicochemical; conditions: label used as liposome marker
Excerpt: In both FIGS. 4a and 4b, pellets 1, 2, and 3 were obtained by differential centrifugation.

[8] = test system: N4TG1 neuroblastoma cells; experiment: Thymidine uptake (cell viability) by N4TG1 neuroblastoma cells incubated with liposomes; assay type: cell-based, mouse; conditions: FIG. 1
Protocol: Plant PI(S) is from the Sigma Chemical Company and plant PI(A) is from Avanti Polar Lipids, Inc. and ([^14 C]linoleoyl)PI is the synthetic PI.
FIGS. 3a and 3b show the effect of increasing the molar fraction of synthetic PI or animal PI in liposomes on (a) thymidine uptake (FIG. 3a) and myo-inositol uptake (FIG. 3b) by N4TG1 neuroblastoma cells, .circle. 100 μm PI, 200 μm PI, 300 μm PI. Cells were incubated with liposomes made up of the various combinations indicated (mol %) of ([^14 C]linoleoyl)PI and animal PI.
FIGS. 9a, b, c, and d show the effect of inhibitors on PI toxicity to tumor cells.
Lipids were dried and resuspended exactly as described previously in the Biochem. Biophys. Res. Commun. article. In the use of ([^14 C]linoleoyl)PI, ([^14 C]oleoyl)PI, or ([^14 C]arachidonoyl)PI the phospholipids were used in a 2:1 molar combination with cholesterol. Cholesterol was included in the liposomes in order to minimize the net transfer of cholesterol into or out of the cells. ([^3 H]myo-Inositol)PI was used as a tracer (1%) with bovine liver PI as the bulk phospholipid carrier for forming liposomes. [^3 H]Linoleic acid was used as a tracer (4%) in liposomes containing linoleic acid:PI (yeast or animal): cholesterol, 2:1. It was shown that it is not necessary to have cholesterol present to observe the cytotoxicity.
The N4TG1 mouse neuroblastoma cell line was obtained from Dr. Peter Chiang (Walter Reed Army Institute of Research) and cultured using Dulbecco's minimal essential medium (MEM: Grand Island Biological Co.) containing 10% fetal bovine serum. Cells were routinely started from frozen cultures every 6 weeks in order to assure that the cells used were from low passage cultures.
as §4
In FIGS. 1 and 2 the curves were quite reproducible and representative experiments are shown. Because of fluctuations (<5%) in control values, the data were "normalized" by comparison with daily controls and expressed as "percentage of control in absence of PI." Typical values for uptake of [^3 H]thymidine by controls are shown in the inserts in FIGS. 1 and 2.

SK-N-MC [9] = experiment: Liposomal uptake by normal and tumor cells; assay type: cell-based, human; conditions: tumor cells SK-N-MC
Protocol: as §3, §1, §2

WI-38/SV-40 [10] = experiment: Liposomal uptake by normal and tumor cells; assay type: cell-based, human
Protocol: as §3, §1, §2

HT-144 [11] = experiment: LD50 to tumor cells of various preparations of PI; assay type: cell-based; conditions: Homo sapiens
Protocol: as §4, §5

N4TG1 = experiment: Liposomal uptake by normal and tumor cells; assay type: cell-based, mouse; conditions: tumor cells N4TG1
Protocol: as §3, §1, §2

Human marrow CFV-GM = experiment: Colony forming units of granulocytes and monocytes; assay type: cell-based; conditions: Monocyte, 192 h
[12] = test system: tumor cells from cultured cell lines; conditions: earlier articles; cited from earlier work

## CCCCC/C=C\C/C=C\CCCCCCCC(=O)O[C@H](COC(=O)CCCCCCCCCCCCCCC)COP(=O)([O-])OCC[N+](C)(C)C
[1]
  toxicity: not as toxic as synthetic phosphatidylinositol containing the identical fatty acids
[2]
  toxicity: not as toxic as synthetic phosphatidylinositol containing the identical fatty acids

## CCCCC/C=C\C/C=C\CCCCCCC[14C](=O)O[C@H](COC(=O)CCCCCCCCCCCCCCC)COP(=O)(O)O[C@@H]1[C@H](O)[C@H](O)[C@@H](O)[C@H](O)[C@H]1O [([^14 C]linoleoyl)PI, sn-3-phosphatidyl(1-palmitoyl-2-[1'-^14 C]linoleoyl)myo-inositol]
HT-144 [3]
  Liposomal uptake: 0.39 nMoles of phospholipid/1 × 10^5 cells
MRC-5
  Liposomal uptake: 0.09 nMoles of phospholipid/1 × 10^5 cells
N4TG1 Neuroblastoma; 3 hours
  pIC50: 4.60
N4TG1 Neuroblastoma; 8 hours
  pIC50: 4.60
SK-N-MC [4]; 3 hours
  pIC50: 4.41
SK-N-MC [4]; 8 hours
  pIC50: 4.42
WI-38/SV-40 [5]; 3 hours
  pIC50: 4.19
WI-38/SV-40 [5]; 8 hours
  pIC50: 4.46
[6]
  DG (diglycerides): 0.8
[7]
  liposomes sedimented by low speed centrifugation: 8%
  liposomes which did not sediment: 92%
[8]
  effectiveness vs plant PI from Sigma: slightly more effective
SK-N-MC [9]
  Liposomal uptake: 0.45 nMoles of phospholipid/1 × 10^5 cells
WI-38/SV-40 [10]
  Liposomal uptake: 0.39 nMoles of phospholipid/1 × 10^5 cells
HT-144 [11]; 3 hours
  pIC50: 4.60
HT-144 [11]; 8 hours
  pIC50: 4.60
N4TG1
  Liposomal uptake: 0.39 nMoles of phospholipid/1 × 10^5 cells

## COc1cccc2c1C(=O)c1c(O)c3c(c(O)c1C2=O)C[C@@](O)(C(=O)CO)C[C@@H]3O[C@H]1C[C@H](N)[C@H](O)[C@H](C)O1 [adriamycin]
Human marrow CFV-GM
  pIC50: 7.10

## CCCCCCCC/C=C\CCCCCCCC(=O)O[C@H]1CC[C@@]2(C)C(=CC[C@H]3[C@@H]4CC[C@H]([C@H](C)CCCC(C)C)[C@@]4(C)CC[C@@H]32)C1 [cholesteryl oleate]
[12]
  anti-tumor effect / selective killing of tumor cells: reduced the anti-tumor effect

## CCCCCCCCCCCCCCCCCC(=O)OCC(COP(=O)([O-])OCC[N+](C)(C)C)OC(=O)CCCCCCCCCCCCCCCCC (centres unmarked) [distearoyl phosphatidyl choline, reference compound]
[1]
  toxicity: no toxicity
[2]
  toxicity: no toxicity
